How the values were obtained:
Assay type in all cases: biochemical
human thrombin = human thrombin (Homo sapiens, UniProt P00734); test: Thrombin amidase inhibition (Kass), chromogenic substrate
Summary of the method: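 Kass, in liter per mole, was averaged over several compound concentrations, using free thrombin from a rate standard curve and free inhibitor as added minus bound. Hydrolysis of chromogenic substrate (0.25 mg/ml solution) was monitored at 405 nm with human thrombin (8 NIH units/ml solution) in Tris-NaCl buffer pH 7.4, compound in 50% aqueous methanol.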

factor Xa = molecular target: T1, factor Xa (Homo sapiens, UniProt P00742); test: Serine protease inhibition (Kass), factor Xa
T1 construct: Human factors X, Xa, IXa, XIa, and XIIa are purchased from Enzyme Research Laboratories; purchased Enzyme Research Laboratories, South Bend, Ind
T1 sequence (P00742 235-488 limits assumed): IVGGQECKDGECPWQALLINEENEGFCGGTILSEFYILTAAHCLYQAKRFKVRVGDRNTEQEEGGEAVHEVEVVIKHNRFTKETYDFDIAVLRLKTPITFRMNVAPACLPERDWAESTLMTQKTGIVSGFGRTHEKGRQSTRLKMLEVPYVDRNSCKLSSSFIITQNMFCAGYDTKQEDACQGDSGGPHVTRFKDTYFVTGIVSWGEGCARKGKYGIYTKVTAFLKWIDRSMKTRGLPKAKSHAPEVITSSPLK
T1 sequence (P00742 41-179 partner limits assumed): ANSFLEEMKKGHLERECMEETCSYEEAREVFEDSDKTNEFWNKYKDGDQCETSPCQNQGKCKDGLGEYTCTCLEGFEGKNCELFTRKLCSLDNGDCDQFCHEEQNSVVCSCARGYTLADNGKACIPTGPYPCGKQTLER
Summary of the method: (§1)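 Chromogenic p-nitroanilide substrate assays run as for human thrombin; trypsin with N-Benzoyl-Phe-Val-Arg-p-nitroanilide, human factor Xa with N-Benzoyl-Ile-Glu-Gly-Arg-p-nitroanilide. Values are association constants (Kass).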

Bovine trypsin = molecular target: T2, Bovine trypsin (Bos taurus, UniProt P00760); test: Serine protease inhibition (Kass), trypsin
T2 construct: Bovine trypsin is purchased from Worthington Biochemicals; purchased Worthington Biochemicals, Freehold, N.J
T2 sequence (P00760 24-246): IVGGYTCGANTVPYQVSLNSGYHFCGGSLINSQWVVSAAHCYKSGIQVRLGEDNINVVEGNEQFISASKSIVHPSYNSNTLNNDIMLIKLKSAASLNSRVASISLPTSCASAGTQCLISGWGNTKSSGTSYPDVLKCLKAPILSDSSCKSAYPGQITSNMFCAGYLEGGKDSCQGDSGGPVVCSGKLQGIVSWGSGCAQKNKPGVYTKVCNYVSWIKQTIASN
Summary of the method: as §1

Human plasmin = molecular target: T3, Human plasmin (Homo sapiens, UniProt P00747); test: Serine protease inhibition (Kass), plasmin
T3 construct: Human plasmin is purchased from Boehringer Mannheim; purchased Boehringer Mannheim, Indianapolis, Ind
T3 sequence (P00747 581-810 limits assumed): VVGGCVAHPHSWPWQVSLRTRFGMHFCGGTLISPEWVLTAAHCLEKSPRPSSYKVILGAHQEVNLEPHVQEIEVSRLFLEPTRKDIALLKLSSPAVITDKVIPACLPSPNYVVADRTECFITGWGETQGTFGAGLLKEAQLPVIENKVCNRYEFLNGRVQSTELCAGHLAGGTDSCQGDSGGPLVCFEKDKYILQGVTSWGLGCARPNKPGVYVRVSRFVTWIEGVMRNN
T3 sequence (P00747 97-580 partner limits assumed): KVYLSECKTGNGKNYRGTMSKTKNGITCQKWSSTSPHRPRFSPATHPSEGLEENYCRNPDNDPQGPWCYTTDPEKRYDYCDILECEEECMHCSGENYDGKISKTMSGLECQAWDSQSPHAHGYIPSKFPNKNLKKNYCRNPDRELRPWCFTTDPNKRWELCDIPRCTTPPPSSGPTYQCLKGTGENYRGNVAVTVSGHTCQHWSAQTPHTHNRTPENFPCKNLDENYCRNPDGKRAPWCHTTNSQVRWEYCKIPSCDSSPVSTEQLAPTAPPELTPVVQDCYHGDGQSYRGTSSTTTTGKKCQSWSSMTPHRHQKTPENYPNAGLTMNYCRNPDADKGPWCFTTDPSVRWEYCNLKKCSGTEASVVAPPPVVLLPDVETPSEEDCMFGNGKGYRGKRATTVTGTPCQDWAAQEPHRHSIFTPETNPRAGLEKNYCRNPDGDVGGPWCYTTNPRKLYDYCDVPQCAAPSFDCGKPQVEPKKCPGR
Summary of the method: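 Kass values come from the thrombin chromogenic procedure applied to fibrinolytic proteases. t-PA (nt-PA single chain, or mt-PA6) paired with substrate H-D-Ile-Pro-Arg-p-nitroanilide; human plasmin paired with H-D-Val-Leu-Lys-p-nitroanilide.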

[1] = molecular target: T4, tissue plasminogen activator (t-PA) (Homo sapiens, UniProt P00750); test: Serine protease inhibition (Kass), t-PA
T4 construct: purchased American Diagnostica, Greenwich, Conn
T4 sequence (P00750 36-562): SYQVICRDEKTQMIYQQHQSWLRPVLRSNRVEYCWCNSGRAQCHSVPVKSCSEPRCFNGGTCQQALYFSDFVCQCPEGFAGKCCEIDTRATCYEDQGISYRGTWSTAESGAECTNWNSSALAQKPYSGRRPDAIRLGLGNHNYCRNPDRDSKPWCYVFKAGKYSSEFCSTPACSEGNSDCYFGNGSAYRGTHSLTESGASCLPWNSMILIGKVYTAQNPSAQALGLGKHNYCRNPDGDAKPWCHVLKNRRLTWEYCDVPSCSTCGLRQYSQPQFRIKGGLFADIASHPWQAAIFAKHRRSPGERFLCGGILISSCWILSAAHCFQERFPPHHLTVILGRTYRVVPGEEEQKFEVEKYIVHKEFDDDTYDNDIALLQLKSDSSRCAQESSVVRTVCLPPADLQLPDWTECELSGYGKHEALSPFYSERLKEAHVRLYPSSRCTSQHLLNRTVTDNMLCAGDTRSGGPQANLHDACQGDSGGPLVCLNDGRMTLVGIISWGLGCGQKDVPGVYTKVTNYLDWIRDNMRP

human plasma [2] = test: Human plasma anticoagulation, thrombin time (TT)
Summary of the method: (§2)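 Compounds added across a wide concentration range to human plasma; APTT, PT and TT clotting times measured on a coagulation instrument, bovine thrombin used for plasma assays. Concentration doubling clotting time estimated by linear extrapolation.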

human plasma [3] = test: Human plasma anticoagulation, activated partial thromboplastin time (APTT)
Summary of the method: as §2

human plasma [4] = test: Human plasma anticoagulation, prothrombin time (PT)
Summary of the method: as §2

| Kass Human Thrombin (human thrombin) [L/mol × 10^6] | Kass Xa (factor Xa) [L/mol × 10^6] | Kass Trypsin (Bovine trypsin) [L/mol × 10^6] | Kass Plasmin (Human plasmin) [L/mol × 10^6] | Kass t-PA [1] [L/mol × 10^6] | Compound | 2 × Clotting time TT (human plasma [2]) [ng/mL] | 2 × Clotting time APTT (human plasma [3]) | 2 × Clotting time PT (human plasma [4]) |
| --- | --- | --- | --- | --- | --- | --- | --- | --- |
| 68 | 2.8 | 52 | 3.4 | 0.31 | Cl.N=C(N)NCCC[C@@H](C=O)NC(=O)[C@@H]1CCCN1C(=O)[C@@H](Cc1ccccc1)NS(=O)(=O)c1nccs1 [Example 63, N-(2-thiazolylsulfonyl)-D-phenylalanyl-L-Prolinyl-L-Arginine Aldehyde Hydrochloride] | 66 | 810 ng/mL | 2,900 ng/mL |
| 3.4 | 0.066 | 14 | 0.28 | 0.11 | CC(=O)N[C@H](Cc1ccccc1)C(=O)N1CCC[C@H]1C(=O)N[C@H](C=O)CCCNC(=N)N.Cl [Example 67, N-(acetyl)-D-phenylalanyl-L-Prolinyl-L-Arginine Aldehyde Hydrochloride] | 140 | 2,700 ng/mL | 4,100 ng/mL |
| 33 | 0.29 | 57 | 3.8 | 0.30 | COCC(=O)N[C@H](Cc1ccccc1)C(=O)N1CCC[C@H]1C(=O)N[C@H](C=O)CCCNC(=N)N.Cl [Example 68, N-(methoxyacetyl)-D-phenylalanyl-L-Prolinyl-L-Arginine Aldehyde Hydrochloride] | 38 | 440 ng/mL | 1,200 ng/mL |
| 26 | 0.033 | 15 | 0.31 | 0.17 | Cl.N=C(N)NCCC[C@@H](C=O)NC(=O)[C@@H]1CCCN1C(=O)[C@@H](Cc1ccccc1)NC(=O)C(F)(F)F [Example 69, N-(trifluoroacetyl)-D-phenylalanyl-L-Prolinyl-L-Arginine Aldehyde Hydrochloride] | 59 | 1,300 ng/mL | 1,800 ng/mL |
| 29 | 0.10 | 14 | 0.54 | 0.37 | Cl.N=C(N)NCCC[C@@H](C=O)NC(=O)[C@@H]1CCCN1C(=O)[C@@H](Cc1ccccc1)NC(=O)Cc1ccccc1 [Example 70, N-(phenylacetyl)-D-phenylalanyl-L-Prolinyl-L-Arginine Aldehyde Hydrochloride] | 64 | 1,100 ng/mL | 2,000 ng/mL |

Second part, the compound before the results:

| Compound | Kass Human Thrombin (human thrombin) [L/mol × 10^6] | Kass Xa (factor Xa) [L/mol × 10^6] | Kass Trypsin (Bovine trypsin) [L/mol × 10^6] | Kass Plasmin (Human plasmin) [L/mol × 10^6] | Kass t-PA [1] [L/mol × 10^6] | 2 × Clotting time TT (human plasma [2]) [ng/mL] | 2 × Clotting time APTT (human plasma [3]) | 2 × Clotting time PT (human plasma [4]) |
| --- | --- | --- | --- | --- | --- | --- | --- | --- |
| Cl.N=C(N)NCCC[C@@H](C=O)NC(=O)[C@@H]1CCCN1C(=O)[C@@H](CC1CCCCC1)NC(=O)c1cc2ccccc2cn1 [Example 50, N-(isoquinolinyl-2-carbonyl)-D-cyclohexylalanyl-L-Prolinyl-L-Arginine Aldehyde Hydrochloride] | 200 | 0.83 | 2.5 | 2.5 | 0.088 | 97 | 1,400 ng/mL | 2,700 ng/mL |
| COc1ccc(OC)c(S(=O)(=O)N[C@H](Cc2ccccc2)C(=O)N2CCC[C@H]2C(=O)N[C@H](C=O)CCCNC(=N)N)c1.Cl [Example 59, N-(2,5-dimethoxyphenylsulfonyl)-D-phenylalanyl-L-Prolinyl-L-Arginine Aldehyde Hydrochloride] | 200 | 8.8 | 150 | 9.5 | 1.5 | 92 | 550 ng/mL | 2,000 ng/mL |
| Cc1noc(C)c1S(=O)(=O)N[C@H](Cc1ccccc1)C(=O)N1CCC[C@H]1C(=O)N[C@H](C=O)CCCNC(=N)N.Cl [Example 60, N-(3,5-dimethyl-4-isoxazolylsulfonyl)-D-phenylalanyl-L-Prolinyl-L-Arginine Aldehyde Hydrochloride] | 260 | 11 | 200 | 18 | 2.7 | 33 | 430 ng/mL | 1,300 ng/mL |
| CCS(=O)(=O)N[C@@H](C(=O)N1CCC[C@H]1C(=O)N[C@H](C=O)CCCNC(=N)N)c1ccccc1.Cl [Example 64, N-(ethylsulfonyl)-D-phenylglycinyl-L-Prolinyl-L-Arginine Aldehyde Hydrochloride] | 510 | 45 | 160 | 14 | 0.34 | 34 | 250 ng/mL | 880 ng/mL |
| CCS(=O)(=O)N[C@@H](C(=O)N1CCC[C@H]1C(=O)N[C@H](C=O)CCCNC(=N)N)C1CCCCC1.Cl [Example 66, N-(ethylsulfonyl)-D-cyclohexylglycinyl-L-Prolinyl-L-Arginine Aldehyde Hydrochloride] | 260 | 24 | 260 | 13 | 0.11 | 46 | 330 ng/mL | 1,100 ng/mL |
| Cl.N=C(N)NCCC[C@@H](C=O)NC(=O)[C@@H]1CCCN1C(=O)[C@@H](Cc1ccccc1)NC(=O)C1CCCCC1 [Example 71, N-(cylohexoyl)-D-phenylalanyl-L-Prolinyl-L-Arginine Aldehyde Hydrochloride] | 20 | 0.064 | 5.9 | 0.24 | 0.26 | 63 | 1,300 ng/mL | 1,800 ng/mL |
| CCCN(CCC)S(=O)(=O)c1ccc(C(=O)N[C@H](Cc2ccccc2)C(=O)N2CCC[C@H]2C(=O)N[C@H](C=O)CCCNC(=N)N)cc1.Cl [Example 73, N-(4-di-n-propylaminosulfonylbenzoyl)-D-phenylalanyl-L-Prolinyl-L-Arginine Aldehyde Hydrochloride] | 43 | 0.32 | 15 | 0.86 | 0.62 | 150 | 3,500 ng/mL | 4,800 ng/mL |
